Assay results taken from patent US12581252B2, “Substituted pyrrolo[3,4-b]pyridines as PI3K-α inhibitors” (Relay Therapeutics, Inc., priority 2020, dated 2026).
pIC50: −log10 of the molar value.

Biological target: H1047R PIK3CA enzyme (Homo sapiens, UniProt P42336, H1047R)
Assay: ADP-Glo Biochemical PIK3CA Kinase Assay

Sequence of H1047R PIK3CA enzyme (P42336 whole entry H1047R): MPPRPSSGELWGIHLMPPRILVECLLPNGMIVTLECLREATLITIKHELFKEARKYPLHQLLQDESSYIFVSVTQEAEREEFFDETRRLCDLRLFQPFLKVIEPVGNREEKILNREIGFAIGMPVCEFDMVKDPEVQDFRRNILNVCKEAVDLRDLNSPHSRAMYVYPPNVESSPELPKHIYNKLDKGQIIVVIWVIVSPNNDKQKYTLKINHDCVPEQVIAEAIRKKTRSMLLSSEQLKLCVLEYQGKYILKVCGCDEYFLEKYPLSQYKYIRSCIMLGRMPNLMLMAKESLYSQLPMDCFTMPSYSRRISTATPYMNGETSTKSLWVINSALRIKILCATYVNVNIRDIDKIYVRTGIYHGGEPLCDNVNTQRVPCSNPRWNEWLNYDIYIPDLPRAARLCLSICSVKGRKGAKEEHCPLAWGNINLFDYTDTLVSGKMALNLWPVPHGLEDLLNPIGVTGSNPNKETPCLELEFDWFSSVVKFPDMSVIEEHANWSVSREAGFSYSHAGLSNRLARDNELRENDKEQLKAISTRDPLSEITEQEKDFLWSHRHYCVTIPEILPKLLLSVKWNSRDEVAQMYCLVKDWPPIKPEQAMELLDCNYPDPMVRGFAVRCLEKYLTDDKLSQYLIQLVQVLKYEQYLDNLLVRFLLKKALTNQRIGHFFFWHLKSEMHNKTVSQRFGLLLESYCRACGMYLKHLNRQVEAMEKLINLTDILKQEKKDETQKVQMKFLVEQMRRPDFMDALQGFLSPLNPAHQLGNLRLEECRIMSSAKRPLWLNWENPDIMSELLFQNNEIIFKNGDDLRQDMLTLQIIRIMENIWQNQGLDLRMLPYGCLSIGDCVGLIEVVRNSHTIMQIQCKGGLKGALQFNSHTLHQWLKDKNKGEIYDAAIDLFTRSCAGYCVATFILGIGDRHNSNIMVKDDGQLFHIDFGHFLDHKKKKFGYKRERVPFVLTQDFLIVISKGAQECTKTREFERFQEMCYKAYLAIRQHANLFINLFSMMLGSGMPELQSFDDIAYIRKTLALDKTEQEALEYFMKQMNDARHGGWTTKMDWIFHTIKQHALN
Sequence of H1047R PIK3CA enzyme (P27986 whole entry partner): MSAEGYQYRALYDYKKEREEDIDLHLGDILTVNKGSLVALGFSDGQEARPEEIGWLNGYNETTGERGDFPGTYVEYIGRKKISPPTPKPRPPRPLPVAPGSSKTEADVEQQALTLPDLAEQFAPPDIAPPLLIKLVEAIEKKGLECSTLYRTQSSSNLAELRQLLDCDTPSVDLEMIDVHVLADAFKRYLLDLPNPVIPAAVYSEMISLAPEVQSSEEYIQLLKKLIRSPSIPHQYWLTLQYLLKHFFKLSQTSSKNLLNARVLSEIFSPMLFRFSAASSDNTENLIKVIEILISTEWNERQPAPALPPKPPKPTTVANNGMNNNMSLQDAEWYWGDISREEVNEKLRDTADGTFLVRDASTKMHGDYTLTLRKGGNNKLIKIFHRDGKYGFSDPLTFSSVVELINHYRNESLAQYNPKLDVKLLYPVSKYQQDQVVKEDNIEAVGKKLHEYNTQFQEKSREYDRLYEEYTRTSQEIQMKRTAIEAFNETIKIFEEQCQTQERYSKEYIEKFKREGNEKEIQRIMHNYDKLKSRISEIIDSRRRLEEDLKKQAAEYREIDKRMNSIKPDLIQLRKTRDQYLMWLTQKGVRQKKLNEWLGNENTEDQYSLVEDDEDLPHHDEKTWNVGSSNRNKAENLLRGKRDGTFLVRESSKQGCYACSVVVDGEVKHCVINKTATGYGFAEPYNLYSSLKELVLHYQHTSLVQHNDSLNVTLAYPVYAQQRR

Structure (SMILES) | pIC50
O=C(Nc1cccc2c1C(c1cc(F)ccc1Cl)NC2=O)c1ccccc1 (stereo not shown) [Compound I-1681] | 4.00 to 5.00
O=C1NC(c2cc(F)ccc2Cl)c2c(Nc3n[nH]c4ccccc34)cc(Br)cc21 (stereo not shown) [Compound I-1315] | 4.00 to 5.00
O=C(Nc1cc(-c2ccc3ncnn3c2)cc2c1[C@H](c1cc(F)ccc1Cl)NC2=O)c1cc(Cl)cc(Cl)c1 (stereo in doubt) [Compound I-1208] | ≥ 7.00
CN1CCCC(C2NC(=O)c3cccc(NC(=O)c4cc(F)cc(C(F)(F)F)c4)c32)C1 (racemic) [Compound I-1769] | 4.00 to 5.00
N#CCc1cc(NC(=O)N2C[C@](O)(C(F)F)c3cc(F)ccc32)c2c(c1)C(=O)N[C@@H]2c1cc(F)ccc1Cl (single isomer, unassigned) [Compound I-2598] | 5.00 to 6.00
O=C1NC(c2ccc3ccccc3c2)c2c(NC(=O)c3nsc4ccccc34)cccc21 (stereo not shown) [Compound I-392] | 4.00 to 5.00
CCC[C@@]1(O)CN(C(=O)Nc2cccc3c2[C@@H](c2cc(F)ccc2Cl)NC3=O)c2ccc(F)cc21 (single isomer, unassigned) [Compound I-2457] | 6.00 to 6.30
O=C1NC(c2cc(F)ccc2Cl)c2c(NC(=O)N3CCC4C3[C@H]4C(F)(F)F)cccc21 (single isomer, unassigned) [Compound I-2328] | 4.00 to 5.00
O=C(Nc1cccc2c1C(c1ccnc(Cl)c1)NC2=O)c1cc(F)cc(C(F)(F)F)c1 (stereo not shown) [Compound I-630] | 4.00 to 5.00
Cc1cn(-c2cc(NC(=O)N3C[C@@](O)(C(F)(F)F)c4cc(F)ccc43)c3c(c2)C(=O)N[C@H]3c2cc(F)ccc2Cl)cn1 (single isomer, unassigned) [Compound I-2638] | 5.00 to 6.00
Cc1ccccc1C1NC(=O)c2c(C(=O)N3CC(S(C)(=O)=O)C3)ccc(NC(=O)c3nsc4ccccc34)c21 (stereo not shown) [Compound I-225] | 6.30 to 7.00
Nc1cc(NC(=O)c2cc(F)cc(C(F)(F)F)c2)c2c(c1)C(=O)N[C@@H]2c1cc(F)ccc1Cl [Compound I-217] | 5.00 to 6.00
O=C1NC(c2cc(F)ccc2Cl)c2c(COc3cc4ccccc4cn3)cc(-c3ccc4ncnn4c3)cc21 (stereo not shown) [Compound I-1981] | 5.00 to 6.00
O=C1N[C@@H](c2cc(F)ccc2Cl)c2c(NC(=O)N3C[C@](O)(C(F)F)c4ccccc43)cccc21 (single isomer, unassigned) [Compound I-2485] | 5.00 to 6.00
O=C1NC(c2cc(F)ccc2Cl)c2c(NC(=O)N3CCc4ccccc43)ccnc21 (stereo not shown) [Compound I-257] | 6.00 to 6.30
Cc1ccccc1C1NC(=O)c2cc([C@@H](C)N)cc(NC(=O)c3csc4ccccc34)c21 (mixture of isomers) [Compound I-90] | ≥ 7.00
Nc1ccc(Cl)c(C2NC(=O)c3cccc(NC(=O)c4cc(F)cc(C(F)(F)F)c4)c32)c1 (stereo not shown) [Compound I-429] | 5.00 to 6.00
CC(=O)N1CCCCC1C(=O)Nc1cc(-c2ccc3ncnn3c2)cc2c1C(c1cc(F)ccc1Cl)NC2=O (mixture of isomers) [Compound I-1804] | 4.00 to 5.00
O=C1N[C@H](c2cc(F)ccc2Cl)c2c(NC(=O)N3CCOCC(F)(F)C3)cc(Br)cc21 (single isomer, unassigned) [Compound I-2243] | 4.00 to 5.00

The next lines start with the values.

pIC50 | Structure (SMILES)
4.00 to 5.00 | O=C(CN1CCCC1)Nc1cc(-c2ccc3ncnn3c2)cc2c1C(c1cc(F)ccc1Cl)NC2=O (stereo not shown) [Compound I-1783]
6.30 to 7.00 | Cc1c(F)cccc1[C@@H]1NC(=O)c2cc(Br)cc(NC(=O)c3cc(F)cc(C(F)(F)F)c3)c21 [Compound I-750]
5.00 to 6.00 | O=C1N[C@@H](c2cc(F)ccc2Cl)c2c(NC(=O)N3C[C@@](O)(C(F)(F)F)c4cc(F)ccc43)ccnc21 (single isomer, unassigned) [Compound I-2700]
6.30 to 7.00 | COc1ccccc1-c1cc(NC(=O)c2cc(F)cc(C(F)(F)F)c2)c2c(c1)C(=O)NC2c1cc(F)ccc1Cl (stereo not shown) [Compound I-1197]
≥ 7.00 | O=C(Nc1cc(-c2cnc[nH]2)cc2c1C(c1cc(F)ccc1Cl)NC2=O)c1cc(F)cc(C(F)(F)F)c1 (stereo not shown) [Compound I-838]
6.00 to 6.30 | O=C1NC(c2cc(F)ccc2Cl)c2c(NC(=O)N3CCCC34CCCCC4)cccc21 (stereo not shown) [Compound I-2430]
5.00 to 6.00 | O=C1NC(c2cc(F)ccc2Cl)c2c(NC(=O)[C@H]3C[C@H](O)C[C@@H](C(F)(F)F)C3)cc(Br)cc21 (stereo partly shown) [Compound I-2080]
4.00 to 5.00 | C[C@@H](O)c1cc(-c2ccc3ncnn3c2)cc2c1[C@H](c1cc(F)ccc1Cl)NC2=O (single isomer, unassigned) [Compound I-2231]
4.00 to 5.00 | O=C1NC(c2cc(F)ccc2Cl)c2c(NC(=O)C3CCCO3)cc(-c3ccc4ncnn4c3)cc21 (stereo not shown) [Compound I-1831]
5.00 to 6.00 | O=C1N[C@@H](c2cc(F)ccc2Cl)c2c(NC(=O)N3C[C@@](O)(C(F)F)c4cc(F)ccc43)cc(Cl)cc21 (single isomer, unassigned) [Compound I-2588]
≥ 7.00 | N#Cc1cc(-c2cc(NC(=O)c3cc(F)cc(C(F)(F)F)c3)c3c(c2)C(=O)N[C@H]3c2cc(F)ccc2Cl)cn2ncnc12 [Compound I-1882]
5.00 to 6.00 | O=C(Nc1cc(Br)cc2c1C(c1cccc(F)c1F)NC2=O)c1cc(F)cc(C(F)(F)F)c1 (stereo not shown) [Compound I-684]
≥ 7.00 | O=C(Nc1cc(C2CNCCS2(=O)=O)cc2c1C(c1cc(F)ccc1Cl)NC2=O)c1cc(F)cc(C(F)(F)F)c1 (racemic) [Compound I-1255]
≥ 7.00 | O=C(Nc1cc(-c2ccc3ncnn3c2)cc2c1C(c1cc(F)ccc1Cl)NC2=O)c1cc(F)cc(C(F)(F)F)c1 (stereo not shown) [Compound I-824]
≥ 7.00 | CC(O)(c1cc(NC(=O)c2cc(F)cc(C(F)(F)F)c2)c2c(c1)C(=O)NC2c1cc(F)ccc1Cl)c1ccccn1 (stereo not shown) [Compound I-1188]
4.00 to 5.00 | COc1ncc2c(c1NC(=O)c1cc(F)cc(C(F)(F)F)c1)C(c1ccccc1Cl)NC2=O (stereo not shown) [Compound I-335, N-(1-(2-chlorophenyl)-6-methoxy-3-oxo-2,3-dihydro-1H-pyrrolo[3,4-c]pyridin-7-yl)-3-fluoro-5-(trifluoromethyl)benzamide]
4.00 to 5.00 | O=C1NC(c2cc(F)ccc2Cl)c2c(NC(=O)N3CCNC(C(F)(F)F)C3)cccc21 (stereo not shown) [Compound I-2222]
6.00 to 6.30 | N#CCc1cc(NC(=O)N2C[C@@](O)(C(F)(F)F)c3cc(F)ccc32)c2c(c1)C(=O)N[C@@H]2c1cc(F)ccc1Cl (single isomer, unassigned) [Compound I-2626]
5.00 to 6.00 | O=C(Nc1cc(/N=C2/N[C@H](C(F)(F)F)CO2)cc2c1[C@@H](c1cc(F)ccc1Cl)NC2=O)c1cc(F)cc(C(F)(F)F)c1 (single isomer, unassigned) [Compound I-2389]
6.30 to 7.00 | Cc1ccccc1C1NC(=O)c2nccc(NC(=O)c3cc(F)cc(C(F)(F)F)c3)c21 (stereo not shown) [Compound I-142]
6.30 to 7.00 | COCc1cc(NC(=O)c2cc(F)cc(C(F)(F)F)c2)c2c(c1)C(=O)N[C@@H]2c1cc(F)ccc1Cl [Compound I-690]
≥ 7.00 | C[C@@H](c1cc(NC(=O)c2cc(F)cc(C(F)(F)F)c2)c2c(c1)C(=O)N[C@H]2c1cc(F)ccc1Cl)S(C)(=O)=O (single isomer, unassigned) [Compound I-1641]
≥ 7.00 | NC(=O)COc1ncc(-c2cc(NC(=O)c3cc(F)cc(C(F)(F)F)c3)c3c(c2)C(=O)NC3c2cc(F)ccc2Cl)cn1 (stereo not shown) [Compound I-1416]
≥ 7.00 | COc1cnccc1-c1cc(NC(=O)c2cc(F)cc(C(F)(F)F)c2)c2c(c1)C(=O)NC2c1cc(F)ccc1Cl (stereo not shown) [Compound I-1219]
